{"source": "paper PMC11125333", "about": "“Self-Immolative Domino Dendrimers as Anticancer-Drug Delivery Systems: A Review” (Pharmaceutics, 2024)", "origin": "cited, not measured here", "parameters": "method as in PMID 25924099", "conditions": "UV irradiation at 365 nm"}
{"smiles": "CC[C@@]1(O)C(=O)OCc2c1cc1n(c2=O)Cc2cc3ccccc3nc2-1", "note": "[CAMP, camptothecin]", "values": [{"measurement": "effect of UV irradiation on cytotoxicity / cell-killing efficacy", "result": "did not increase"}]}
